Results from ChEMBL document CHEMBL4507291 (2021).

Tests used:
[1] = molecular target: Acetylcholinesterase (Homo sapiens) (UniProt P22303); details: Compound concentration 10.0 uM
[2] = test system: Epidermal growth factor receptor (Homo sapiens), P00533 [L861Q]; experiment: EGFR (ErbB1) L861Q Kinase screen; details: Compound concentration 1.0 uM
[3] = molecular target: Vascular endothelial growth factor receptor 1 (Homo sapiens) (UniProt P17948); experiment: FLT1 (VEGFR1) Kinase screen; details: Compound concentration 1.0 uM
Sequence of Vascular endothelial growth factor receptor 1 (Homo sapiens) (P17948 whole entry): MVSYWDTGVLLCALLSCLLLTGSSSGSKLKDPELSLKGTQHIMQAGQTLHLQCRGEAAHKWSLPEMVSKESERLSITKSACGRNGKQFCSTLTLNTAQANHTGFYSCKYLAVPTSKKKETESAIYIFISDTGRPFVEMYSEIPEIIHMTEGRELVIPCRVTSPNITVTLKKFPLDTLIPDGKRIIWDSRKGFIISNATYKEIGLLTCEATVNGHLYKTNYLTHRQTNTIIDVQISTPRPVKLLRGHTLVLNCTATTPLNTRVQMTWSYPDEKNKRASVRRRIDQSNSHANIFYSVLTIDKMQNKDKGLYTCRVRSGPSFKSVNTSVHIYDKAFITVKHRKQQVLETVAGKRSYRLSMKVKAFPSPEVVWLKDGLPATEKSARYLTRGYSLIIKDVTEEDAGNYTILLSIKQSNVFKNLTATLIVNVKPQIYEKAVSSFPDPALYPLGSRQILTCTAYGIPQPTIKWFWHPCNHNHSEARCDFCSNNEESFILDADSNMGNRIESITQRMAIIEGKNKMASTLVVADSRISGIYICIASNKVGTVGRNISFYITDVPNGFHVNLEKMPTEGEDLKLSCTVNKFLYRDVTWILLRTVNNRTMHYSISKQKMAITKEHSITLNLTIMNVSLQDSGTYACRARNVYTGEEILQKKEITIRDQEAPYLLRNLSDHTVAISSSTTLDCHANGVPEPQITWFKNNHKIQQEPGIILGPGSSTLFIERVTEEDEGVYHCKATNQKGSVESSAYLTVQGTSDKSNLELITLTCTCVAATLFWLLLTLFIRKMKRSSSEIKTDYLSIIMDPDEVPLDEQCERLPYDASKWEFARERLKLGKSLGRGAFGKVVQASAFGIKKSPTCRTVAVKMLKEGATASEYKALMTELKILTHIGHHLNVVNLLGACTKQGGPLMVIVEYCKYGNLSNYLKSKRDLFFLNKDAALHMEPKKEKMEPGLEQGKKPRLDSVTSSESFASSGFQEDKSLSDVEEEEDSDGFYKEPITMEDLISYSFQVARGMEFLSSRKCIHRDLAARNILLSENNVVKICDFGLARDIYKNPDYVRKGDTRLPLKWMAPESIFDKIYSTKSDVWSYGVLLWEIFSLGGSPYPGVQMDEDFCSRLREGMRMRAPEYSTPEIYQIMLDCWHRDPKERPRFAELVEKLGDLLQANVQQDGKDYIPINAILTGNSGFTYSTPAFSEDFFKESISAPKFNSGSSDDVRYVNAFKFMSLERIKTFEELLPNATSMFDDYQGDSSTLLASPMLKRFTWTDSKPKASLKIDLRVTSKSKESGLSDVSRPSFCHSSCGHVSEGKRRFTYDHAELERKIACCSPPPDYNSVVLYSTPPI

[4] = molecular target: Protein kinase C zeta type (Homo sapiens) (UniProt Q05513); experiment: PRKCZ (PKC zeta) Kinase screen; details: Compound concentration 1.0 uM
Sequence of Protein kinase C zeta type (Homo sapiens) (Q05513 whole entry): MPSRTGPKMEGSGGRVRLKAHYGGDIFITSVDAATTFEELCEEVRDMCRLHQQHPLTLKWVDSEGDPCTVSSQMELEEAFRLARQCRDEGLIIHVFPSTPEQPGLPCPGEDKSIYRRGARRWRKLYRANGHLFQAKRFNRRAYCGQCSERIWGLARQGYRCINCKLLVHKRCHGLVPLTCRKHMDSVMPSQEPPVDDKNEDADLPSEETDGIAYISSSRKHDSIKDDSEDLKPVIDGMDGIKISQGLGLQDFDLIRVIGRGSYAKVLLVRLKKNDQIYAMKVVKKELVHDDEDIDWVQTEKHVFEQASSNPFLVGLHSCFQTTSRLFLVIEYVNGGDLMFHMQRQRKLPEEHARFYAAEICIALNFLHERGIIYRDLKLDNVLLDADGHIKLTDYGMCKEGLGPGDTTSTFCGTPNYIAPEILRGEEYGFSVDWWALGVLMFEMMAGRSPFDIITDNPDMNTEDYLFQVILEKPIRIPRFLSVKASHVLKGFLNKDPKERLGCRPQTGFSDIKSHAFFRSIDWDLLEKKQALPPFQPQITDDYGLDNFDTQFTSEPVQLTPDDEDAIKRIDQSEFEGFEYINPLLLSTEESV

[5] = test system: Epidermal growth factor receptor (Homo sapiens), P00533 [T790M]; experiment: EGFR (ErbB1) T790M Kinase screen; details: Compound concentration 1.0 uM
Sequence of Epidermal growth factor receptor (Homo sapiens), P00533 [T790M] (P00533 whole entry T790M): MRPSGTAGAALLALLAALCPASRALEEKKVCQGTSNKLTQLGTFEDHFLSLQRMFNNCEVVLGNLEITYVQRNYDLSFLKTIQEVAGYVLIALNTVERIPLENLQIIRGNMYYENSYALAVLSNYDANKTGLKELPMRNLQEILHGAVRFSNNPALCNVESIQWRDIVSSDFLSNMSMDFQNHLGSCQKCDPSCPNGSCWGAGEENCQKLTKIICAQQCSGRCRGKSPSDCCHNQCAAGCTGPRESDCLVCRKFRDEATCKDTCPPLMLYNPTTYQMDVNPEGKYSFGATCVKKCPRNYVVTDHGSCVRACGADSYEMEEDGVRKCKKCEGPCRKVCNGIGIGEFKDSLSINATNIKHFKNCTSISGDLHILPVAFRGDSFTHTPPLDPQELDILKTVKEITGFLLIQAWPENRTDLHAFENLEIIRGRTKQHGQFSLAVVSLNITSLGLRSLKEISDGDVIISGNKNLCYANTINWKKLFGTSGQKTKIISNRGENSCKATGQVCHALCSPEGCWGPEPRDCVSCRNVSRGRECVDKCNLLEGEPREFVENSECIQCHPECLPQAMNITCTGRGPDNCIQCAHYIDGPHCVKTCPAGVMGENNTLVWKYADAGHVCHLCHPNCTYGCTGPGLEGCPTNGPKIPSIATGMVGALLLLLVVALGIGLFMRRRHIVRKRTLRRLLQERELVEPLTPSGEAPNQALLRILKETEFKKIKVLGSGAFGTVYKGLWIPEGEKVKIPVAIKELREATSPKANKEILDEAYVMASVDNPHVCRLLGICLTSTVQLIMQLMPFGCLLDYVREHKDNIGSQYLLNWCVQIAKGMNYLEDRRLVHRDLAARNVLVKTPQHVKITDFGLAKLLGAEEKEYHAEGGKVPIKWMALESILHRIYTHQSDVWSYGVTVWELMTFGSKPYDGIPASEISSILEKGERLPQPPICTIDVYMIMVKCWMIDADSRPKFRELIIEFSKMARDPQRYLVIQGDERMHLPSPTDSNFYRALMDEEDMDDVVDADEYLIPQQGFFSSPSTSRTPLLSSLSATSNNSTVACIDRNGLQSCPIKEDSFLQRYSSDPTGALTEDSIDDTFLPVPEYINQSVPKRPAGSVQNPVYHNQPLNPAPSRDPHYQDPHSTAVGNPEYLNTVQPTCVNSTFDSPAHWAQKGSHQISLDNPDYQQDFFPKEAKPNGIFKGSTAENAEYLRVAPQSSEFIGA

[6] = test system: Tyrosine-protein kinase JAK2 (Homo sapiens), O60674 [V617F]; experiment: JAK2 JH1 JH2 V617F Kinase screen; details: Compound concentration 1.0 uM
[7] = molecular target: Epithelial discoidin domain-containing receptor 1 (Homo sapiens) (UniProt Q08345); experiment: DDR1 Kinase screen; details: Compound concentration 1.0 uM
[8] = molecular target: Tyrosine-protein kinase Lck (Homo sapiens) (UniProt P06239); experiment: LCK Kinase screen; details: Compound concentration 1.0 uM
[9] = molecular target: T1, Tyrosine-protein kinase JAK3 (Homo sapiens) (UniProt P52333); experiment: JAK3 Kinase screen; details: Compound concentration 1.0 uM
T1 sequence (whole entry): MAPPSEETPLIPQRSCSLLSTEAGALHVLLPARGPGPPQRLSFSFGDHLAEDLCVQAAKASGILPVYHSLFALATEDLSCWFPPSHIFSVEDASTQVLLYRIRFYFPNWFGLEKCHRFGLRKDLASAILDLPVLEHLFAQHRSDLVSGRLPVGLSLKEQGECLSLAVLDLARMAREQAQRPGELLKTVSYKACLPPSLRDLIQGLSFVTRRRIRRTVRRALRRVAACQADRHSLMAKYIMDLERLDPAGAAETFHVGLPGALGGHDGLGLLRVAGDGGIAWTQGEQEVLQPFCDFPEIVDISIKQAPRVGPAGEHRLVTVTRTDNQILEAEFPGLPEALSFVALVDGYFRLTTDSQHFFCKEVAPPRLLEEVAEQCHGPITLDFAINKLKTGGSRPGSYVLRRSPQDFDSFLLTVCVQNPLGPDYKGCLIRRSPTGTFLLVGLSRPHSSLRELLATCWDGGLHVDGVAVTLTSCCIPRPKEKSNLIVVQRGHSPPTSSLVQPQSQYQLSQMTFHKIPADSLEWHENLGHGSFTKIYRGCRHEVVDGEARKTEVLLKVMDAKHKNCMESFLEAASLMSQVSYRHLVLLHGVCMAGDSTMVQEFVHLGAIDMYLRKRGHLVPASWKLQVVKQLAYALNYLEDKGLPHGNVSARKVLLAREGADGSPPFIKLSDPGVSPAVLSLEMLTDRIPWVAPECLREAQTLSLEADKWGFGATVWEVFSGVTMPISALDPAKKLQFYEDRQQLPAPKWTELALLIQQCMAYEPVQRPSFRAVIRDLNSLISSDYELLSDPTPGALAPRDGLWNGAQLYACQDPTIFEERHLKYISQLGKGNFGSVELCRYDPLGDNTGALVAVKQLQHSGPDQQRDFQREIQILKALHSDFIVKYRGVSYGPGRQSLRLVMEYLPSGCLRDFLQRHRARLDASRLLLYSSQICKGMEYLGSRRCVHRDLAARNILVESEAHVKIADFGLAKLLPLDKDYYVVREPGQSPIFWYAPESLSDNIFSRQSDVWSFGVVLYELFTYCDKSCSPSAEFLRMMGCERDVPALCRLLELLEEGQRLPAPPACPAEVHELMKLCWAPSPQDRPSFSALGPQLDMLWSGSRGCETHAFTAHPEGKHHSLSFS

[10] = molecular target: BDNF/NT-3 growth factors receptor (Homo sapiens) (UniProt Q16620); experiment: NTRK2 (TRKB) Kinase screen; details: Compound concentration 1.0 uM
[11] = molecular target: T2, Ephrin type-B receptor 1 (Homo sapiens) (UniProt P54762); experiment: EPHB1 Kinase screen; details: Compound concentration 1.0 uM
T2 sequence (whole entry): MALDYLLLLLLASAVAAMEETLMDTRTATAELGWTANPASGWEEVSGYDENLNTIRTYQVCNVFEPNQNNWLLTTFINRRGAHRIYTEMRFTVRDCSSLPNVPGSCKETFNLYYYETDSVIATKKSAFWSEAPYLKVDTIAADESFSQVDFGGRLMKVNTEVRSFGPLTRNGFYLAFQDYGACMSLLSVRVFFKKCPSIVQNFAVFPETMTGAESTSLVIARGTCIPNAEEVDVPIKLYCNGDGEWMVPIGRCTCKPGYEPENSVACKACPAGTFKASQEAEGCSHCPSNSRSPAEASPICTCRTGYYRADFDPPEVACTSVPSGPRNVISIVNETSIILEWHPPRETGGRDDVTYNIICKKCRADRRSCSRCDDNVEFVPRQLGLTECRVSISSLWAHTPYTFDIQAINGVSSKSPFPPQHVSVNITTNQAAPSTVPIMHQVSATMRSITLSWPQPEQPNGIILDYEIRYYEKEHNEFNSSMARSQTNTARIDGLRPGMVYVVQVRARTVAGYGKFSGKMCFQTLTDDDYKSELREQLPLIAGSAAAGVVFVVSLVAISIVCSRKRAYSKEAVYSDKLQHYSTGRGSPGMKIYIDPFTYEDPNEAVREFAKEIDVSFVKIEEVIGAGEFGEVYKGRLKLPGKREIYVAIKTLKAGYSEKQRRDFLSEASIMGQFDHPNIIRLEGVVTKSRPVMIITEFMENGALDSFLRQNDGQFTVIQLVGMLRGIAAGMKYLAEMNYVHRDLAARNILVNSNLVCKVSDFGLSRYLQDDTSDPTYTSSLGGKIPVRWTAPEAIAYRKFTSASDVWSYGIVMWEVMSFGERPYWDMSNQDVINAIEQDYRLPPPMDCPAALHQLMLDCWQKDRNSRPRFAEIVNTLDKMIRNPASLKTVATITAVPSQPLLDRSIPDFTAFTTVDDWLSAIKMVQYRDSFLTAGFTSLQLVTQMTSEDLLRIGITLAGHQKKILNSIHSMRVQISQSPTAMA

Measured: inhibition

Sequence of Epidermal growth factor receptor (Homo sapiens), P00533 [L861Q] (P00533 whole entry L861Q): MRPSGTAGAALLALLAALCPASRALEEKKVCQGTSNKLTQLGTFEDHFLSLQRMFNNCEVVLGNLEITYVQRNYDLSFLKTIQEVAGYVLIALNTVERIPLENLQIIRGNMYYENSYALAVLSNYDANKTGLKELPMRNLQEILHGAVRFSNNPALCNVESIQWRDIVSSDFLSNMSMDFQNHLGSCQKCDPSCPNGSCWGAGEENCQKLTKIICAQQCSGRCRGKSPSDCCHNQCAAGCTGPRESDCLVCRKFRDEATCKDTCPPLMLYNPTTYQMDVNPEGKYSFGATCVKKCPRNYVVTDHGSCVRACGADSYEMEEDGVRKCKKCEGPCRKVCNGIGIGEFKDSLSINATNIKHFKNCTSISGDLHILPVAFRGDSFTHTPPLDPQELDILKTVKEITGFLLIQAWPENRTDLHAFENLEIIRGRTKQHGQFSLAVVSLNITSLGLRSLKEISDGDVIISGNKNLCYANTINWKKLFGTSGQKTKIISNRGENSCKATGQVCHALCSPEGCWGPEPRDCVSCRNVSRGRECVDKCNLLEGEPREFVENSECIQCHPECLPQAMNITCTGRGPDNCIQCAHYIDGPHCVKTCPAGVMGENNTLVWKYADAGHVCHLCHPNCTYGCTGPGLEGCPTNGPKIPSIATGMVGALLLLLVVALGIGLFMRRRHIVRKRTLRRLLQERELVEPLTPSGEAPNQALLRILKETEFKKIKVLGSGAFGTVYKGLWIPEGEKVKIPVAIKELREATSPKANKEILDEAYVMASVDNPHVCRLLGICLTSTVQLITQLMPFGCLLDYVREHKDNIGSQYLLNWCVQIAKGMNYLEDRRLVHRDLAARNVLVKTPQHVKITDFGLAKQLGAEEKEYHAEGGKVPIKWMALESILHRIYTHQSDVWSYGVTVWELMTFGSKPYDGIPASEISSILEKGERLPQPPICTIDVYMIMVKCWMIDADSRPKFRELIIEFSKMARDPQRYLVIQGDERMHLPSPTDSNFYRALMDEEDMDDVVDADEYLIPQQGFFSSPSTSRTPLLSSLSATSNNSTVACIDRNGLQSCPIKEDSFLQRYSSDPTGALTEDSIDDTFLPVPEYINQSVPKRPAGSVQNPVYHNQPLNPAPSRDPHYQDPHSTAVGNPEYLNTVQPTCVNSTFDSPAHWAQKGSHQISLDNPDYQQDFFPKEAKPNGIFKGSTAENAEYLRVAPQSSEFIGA
Sequence of Acetylcholinesterase (Homo sapiens) (P22303 whole entry): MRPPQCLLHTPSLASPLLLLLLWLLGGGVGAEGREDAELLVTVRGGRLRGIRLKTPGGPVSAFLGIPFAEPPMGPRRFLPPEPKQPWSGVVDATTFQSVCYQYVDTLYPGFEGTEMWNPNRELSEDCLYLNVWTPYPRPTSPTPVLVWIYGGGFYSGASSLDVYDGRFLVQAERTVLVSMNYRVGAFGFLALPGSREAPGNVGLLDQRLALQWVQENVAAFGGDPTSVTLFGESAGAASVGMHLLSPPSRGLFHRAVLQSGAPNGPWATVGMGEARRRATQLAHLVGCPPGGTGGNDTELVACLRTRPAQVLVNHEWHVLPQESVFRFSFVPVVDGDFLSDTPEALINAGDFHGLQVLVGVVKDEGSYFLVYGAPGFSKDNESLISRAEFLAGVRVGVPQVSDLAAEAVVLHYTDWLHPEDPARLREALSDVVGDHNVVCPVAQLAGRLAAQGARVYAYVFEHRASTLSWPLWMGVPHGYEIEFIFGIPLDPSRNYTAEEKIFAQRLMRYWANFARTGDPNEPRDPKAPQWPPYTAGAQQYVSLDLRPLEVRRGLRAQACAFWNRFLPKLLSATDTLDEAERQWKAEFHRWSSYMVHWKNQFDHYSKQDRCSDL

C[C@@H]1CN(c2cc(-c3n[nH]c4ccc(OC5(C)CC5)cc34)ncn2)C[C@H](C)O1 [MLi-2]
inactive: [1] -2% | [2] 9.16% | [3] -1.02% | [4] -4.02% | [5] 3.93% | [6] -7.77% | [7] 0.893% | [8] 10.4% | [9] 7.05% | [10] 7.02% | [11] 3.46%
